In brackets after ≈: the same amount, converted by molar mass.
Assays:
Assay type in all cases: physicochemical
[1] = Solubility in different buffered solutions at 25° C.
Protocol: Solubilities of 1-(6-amino-3,5-difluoropyridin-2-yl)-8-chloro-6-fluoro-1,4-dihydro-7-(3-hydroxyazetidin-1-yl)-4-oxo-3-quinolinecarboxylic acid in different buffered solutions at 25° C. are shown in TABLE 1.

[2] = Solubility in different base solutions at 25° C. (free acid); conditions: for solubility: aqueous buffer
Protocol: Solubilities of 1-(6-amino-3,5-difluoropyridin-2-yl)-8-chloro-6-fluoro-1,4-dihydro-7-(3-hydroxyazetidin-1-yl)-4-oxo-3-quinolinecarboxylic acid in different base solutions at 25° C. are shown in TABLE 2.

[3] = Solubility of the trihydrate salt in different base solutions at 25° C.
Protocol: The solubility of D-glucitol, 1-deoxy-1-(methylamino)-, 1-(6-amino-3,5-difluoropyridin-2-yl)-8-chloro-6-fluoro-1,4-dihydro-7-(3-hydroxyazetidin-1-yl)-4-oxo-3-quinolinecarboxylate trihydrate (salt) in different base solutions at 25° C. is shown in TABLE 3.

[4] = 0.01M meglumine, final pH 9.00, 25° C.
[5] = 0.1M meglumine, final pH 9.83, 25° C.
[6] = 1M meglumine, final pH 10.85, 25° C.

Nc1nc(-n2cc(C(=O)O)c(=O)c3cc(F)c(N4CC(O)C4)c(Cl)c32)c(F)cc1F [1-(6-amino-3,5-difluoropyridin-2-yl)-8-chloro-6-fluoro-1,4-dihydro-7-(3-hydroxyazetidin-1-yl)-4-oxo-3-quinolinecarboxylic acid]
solubility ([1]; 0.1 HCl (printed 0.1 HC1), simulated gastric fluid, 0.1 HC1, final pH 0.8, 25° C.): 3.26 µg/mL (≈ 0.0074 mM)
solubility ([1]; aqueous buffer, 0.1M NaOH, final pH 8.4, 25° C.): 3400 µg/mL (≈ 7.71 mM)
solubility ([1]; aqueous buffer, Phosphate Buffer 8.0, final pH 7.8, 25° C.): 651 µg/mL (≈ 1.48 mM)
solubility ([1]; aqueous buffer, citrate buffer 4.0, final pH 4.2, 25° C.): 3.44 µg/mL (≈ 0.0078 mM)
solubility ([1]; aqueous buffer, citrate buffer 5.0, final pH 5.1, 25° C.): 3.33 µg/mL (≈ 0.00756 mM)
solubility ([1]; aqueous buffer, glycine buffer 9.0, final pH 8.2, 25° C.): 2490 µg/mL (≈ 5.65 mM)
solubility ([1]; aqueous buffer, phosphate buffer 6.8, final pH 6.8, 25° C.): 66.8 µg/mL (≈ 0.152 mM)
solubility ([1]; aqueous buffer, phosphate buffer 7.4, final pH 7.4, 25° C.): 283 µg/mL (≈ 0.642 mM)
solubility ([1]; organic solvent or mixture, ethanol, 25° C.): 867 µg/mL (≈ 1.97 mM)
solubility ([1]; saline or isotonic, saline, final pH 5.8-5.9, 25° C.): 13 µg/mL (≈ 0.0295 mM)
Ksp (M^2) ([2]; 0.5M KOH): 1.69 × 10^−2 M^2
Swater ([2]; 0.5M KOH): 57.4 mg/mL
Ksp (M^2) ([2]; 1M L-arginine): 4.81 × 10^−4 M^2
Swater ([2]; 1M L-arginine): 9.67 mg/mL
Ksp (M^2) ([2]; 1M NaOH): 1.66 × 10^−2 M^2
Swater ([2]; 1M NaOH): 56.8 mg/mL
Ksp (M^2) ([2]; 1.0M TRIS): 1.619 × 10^−4 M^2
Swater ([2]; 1.0M TRIS): 4.8 mg/mL
Ksp (M^2) ([2]; 1M ethanolamine): 2.04 × 10^−3 M^2
Swater ([2]; 1M ethanolamine): 19.9 mg/mL
Ksp (M^2) ([2]; 1M meglumin): 2.81 × 10^−3 M^2
Swater ([2]; 1M meglumin): 23.6 mg/mL
solubility ([2]; 0.5M KOH): 24400 µg/mL (≈ 55.4 mM)
solubility ([2]; 1M L-arginine): 11200 µg/mL (≈ 25.4 mM)
solubility ([2]; 1M NaOH): 8330 µg/mL (≈ 18.9 mM)
solubility ([2]; 1.0M TRIS): 5760 µg/mL (≈ 13.1 mM)
solubility ([2]; 1M ethanolamine): 24900 µg/mL (≈ 56.5 mM)
solubility ([2]; 1M meglumin): 32100 µg/mL (≈ 72.8 mM)

CNC[C@H](O)[C@@H](O)[C@H](O)[C@H](O)CO.Nc1nc(-n2cc(C(=O)O)c(=O)c3cc(F)c(N4CC(O)C4)c(Cl)c32)c(F)cc1F.O.O.O [D-glucitol, 1-deoxy-1-(methylamino)-, 1-(6-amino-3,5-difluoropyridin-2-yl)-8-chloro-6-fluoro-1,4-dihydro-7-(3-hydroxyazetidin-1-yl)-4-oxo-3-quinolinecarboxylate trihydrate (salt)]
Ksp (M^2) [3, 4]: 4.71 × 10^−3 M^2
solubility [3, 4]: 32400 µg/mL
Ksp (M^2) [3, 5]: 4.16 × 10^−3 M^2
solubility [3, 5]: 32200 µg/mL
Ksp (M^2) [3, 6]: 3.34 × 10^−3 M^2
solubility [3, 6]: 30800 µg/mL
Ksp (M^2) ([3]; water, final pH 8.78, 25° C.): 5.00 × 10^−3 M^2
solubility ([3]; water, final pH 8.78, 25° C.): 33900 µg/mL
